Test results: patent US8071797B2 (priority 2008, dated 2011)

Target: T1, HCV polymerase (NS5B570n-Con1) (Hepatitis C virus genotype 1b, UniProt Q9WMX2)
T1 construct: contains a 21 amino acid deletion at the C-terminus relative to the full-length HCV polymerase; 6-histidine (N); made in house; host or cells: E. coli BL21 (DE) pLysS
Experiment: HCV NS5B RNA polymerase activity assay
Assay type: biochemical, HCV Con1 strain
Conditions: IC50 NS5B polymerase assay, Table I
Method: The enzymatic activity of HCV polymerase (NS5B570n-Con1) was measured as the incorporation of radiolabeled nucleotide monophosphates into acid insoluble RNA products. Unincorporated radiolabeled substrate was removed by filtration and scintillant was added to the washed and dried filter plate containing radiolabeled RNA product. The amount of RNA product generated by NS5B570-Con1 at the end of the reaction was directly proportional to the amount of light emitted by the scintillant.
The N-terminal 6-histidine tagged HCV polymerase, derived from HCV Con1 strain, genotype 1b (NS5B570n-Con1) contains a 21 amino acid deletion at the C-terminus relative to the full-length HCV polymerase and was purified from E. coli strain BL21 (DE) pLysS. The construct, containing the coding sequence of HCV NS5B Con1 (GenBank accession number AJ242654) was inserted into the plasmid construct pETI 7b, downstream of a T7 promoter expression cassette and transformed into E. coli. A single colony was grown overnight as a starter culture and later used inoculate 10 L of LB media supplemented with 100 μg/mL ampicillin at 37° C. Protein expression was induced by the addition of 0.25 mM isopropyl-β-D-thiogalactopyranoside (IPTG) when optical density at […] of the culture was between 0.6 and 0.8 and cells were harvested after 16 to 18 h at 30° C. NS5B570n-Con1 was purified to homogeneity using a three-step protocol including subsequent column chromatography on Ni-NTA, SP-Sepharose HP and Superdex 75 resins.
Each 50 μl enzymatic reaction contained 20 nM RNA template derived from the complementary sequence of the Internal Ribosome Entry Site (cIRES), 20 nM NS5B570n-Con1 enzyme, 0.5 μCi of tritiated UTP (Perkin Elmer catalog no. TRK-412; specific activity: 30 to 60 Ci/mmol; stock solution concentration from 7.5×10^-5 M to 20.6×10^-6 M), 1 μM each ATP, CTP, and GTP, 40 mM Tris-HCl pH 8.0, 40 mM NaCl, 4 mM DTT (dithiothreitol), 4 mM MgCl2, and 5 μl of compound serial diluted in DMSO. Reaction mixtures were assembled in 96-well filter plates (cat #MADVN0B, Millipore Co.) and incubated for 2 h at 30° C. Reactions were stopped by addition of 10% final (v/v) trichloroacetic acid and incubated for 40 min at 4° C. Reactions were filtered, washed with 8 reaction volumes of 10% (v/v) trichloroacetic acetic acid, 4 reaction volumes of 70% (v/v) ethanol, air dried, and 25 μl of scintillant (Microscint 20, Perkin-Elmer) was added to each reaction well.
The amount of light emitted from the scintillant was converted to counts per minute (CPM) on a Topcount® plate reader (Perkin-Elmer, Energy Range: Low, Efficiency Mode Normal, Count Time: 1 min, Background Subtract: none, Cross talk reduction: Off).
Data was analyzed in Excel® (Microsoft®) and ActivityBase® (idbsg). The reaction in the absence of enzyme was used to determine the background signal, which was subtracted from the enzymatic reactions. Positive control reactions were performed in the absence of compound, from which the background corrected activity was set as 100% polymerase activity. All data was expressed as a percentage of the positive control. The compound concentration at which the enzyme-catalyzed rate of RNA synthesis was reduced by 50% (IC50) was calculated by fitting
[formula] equation (t) to the data.where “Y” corresponds to the relative enzyme activity (in %), “% Min” is the residual relative activity at saturating compound concentration, “% Max” is the relative maximum enzymatic activity, “X” corresponds to the compound concentration, and “S” is the Hill coefficient (or slope).

| SMILES | IC50 [nM] |
| --- | --- |
| CNC(=O)c1c(-c2ccc(Oc3ccccc3)cc2)oc2cc(N3CCNS3(=O)=O)c(C3CC3)cc12 [Compound I-102, 5-Cyclopropyl-6-(1,1-dioxo-1λ^6-[1,2,5]thiadiazolidin-2-yl)-2-(4-phenoxy-phenyl)-benzofuran-3-carboxylic acid methylamide] | 20 |
| CNC(=O)c1c(-c2ccc(Oc3ccccc3)cc2)oc2cc(N3CCCS3(=O)=O)c(C3CC3)cc12 [Compound I-82, 5-Cyclopropyl-6-(1,1-dioxo-1λ^6-isothiazolidin-2-yl)-2-(4-phenoxy-phenyl)-benzofuran-3-carboxylic acid methylamide] | 66 |
| CNC(=O)c1c(-c2ccc(Oc3ccc(F)cc3)cc2)oc2cc(N(CCO)S(C)(=O)=O)ccc12 [Compound I-64, 2-[4-(4-Fluoro-phenoxy)-phenyl]-6-[(2-hydroxy-ethyl)-methanesulfonyl-amino]-benzofuran-3-carboxylic acid methylamide] | 415 |
| CNC(=O)c1c(-c2ccc(Oc3ccc(F)cc3)cc2)oc2cc(N(CC(N)CO)S(C)(=O)=O)c(C3CC3)cc12.Cl (centres unmarked) [Compound I-107] | 19 |
| CNC(=O)c1c(-c2ccc(Oc3ccc(F)cc3)cc2)oc2cc(N(CCS(C)(=O)=O)S(C)(=O)=O)c(C3CC3)cc12 [Compound I-83, 5-cyclopropyl-2-[4-(4-fluoro-phenoxy)-phenyl]-6-[methanesulfonyl-(2-methanesulfonyl-ethyl)-amino]-benzofuran-3-carboxylic acid methylamide] | 29 |
| CNC(=O)c1c(-c2ccc(Oc3ccc(F)cc3)cc2)oc2cc(N(CCN)C(C)=O)c(OC)cc12 [Compound I-54] | 1240 |
| CNC(=O)c1c(-c2ccc(Oc3ccc(F)cc3)cc2)oc2cc(N(CCSC)S(C)(=O)=O)c(C3CC3)cc12 [Compound I-81, 5-Cyclopropyl-2-[4-(4-fluoro-phenoxy)-phenyl]-6-[methanesulfonyl-(2-methylsulfanyl-ethyl)-amino]-benzofuran-3-carboxylic acid methylamide] | 16 |
| CNC(=O)c1c(-c2ccc(Nc3cccc(C#N)c3)cc2)oc2cc(N(CCO)S(C)(=O)=O)c(OC)cc12 [Compound I-12] | 298 |
| CNC(=O)c1c(-c2ccc(Oc3ccc(F)cc3)nc2)oc2cc(N(CCO)S(C)(=O)=O)c(OC)cc12 [Compound I-125, 2-[6-(4-Fluoro-phenoxy)-pyridin-3-yl]-6-[(2-hydroxy-ethyl)-methanesulfonyl-amino]-5-methoxy-benzofuran-3-carboxylic acid methylamide] | 490 |
| CNC(=O)c1c(-c2ccc(Oc3ccc(F)cc3)cc2)oc2cc(N(CC3CCOCC3)S(C)(=O)=O)c(C3CC3)cc12 [Compound I-56] | 157 |
| CNC(=O)c1c(-c2ccc(Oc3ccccc3)cc2)oc2cc(C(C)=O)c(C3CC3)cc12 [Compound I-86] | 362 |
| CNC(=O)c1c(-c2ccc(Oc3ccc(F)cc3)cc2)oc2cc(N([C@H]3CC[C@@H](O)CC3)S(C)(=O)=O)c(C3CC3)cc12 [Compound I-99] | 23 |
| CCN(c1cc2oc(-c3ccc(Nc4ccccc4F)cc3)c(C(=O)NC)c2cc1OC)S(C)(=O)=O [Compound I-18] | 5 |
| CNC(=O)c1c(-c2ccc(Oc3ccc(F)cc3)cc2)oc2cc(N(CC3CCOC3)S(C)(=O)=O)c(C3CC3)cc12 (centres unmarked) [Compound I-60] | 115 |
| CNC(=O)c1c(-c2ccc(Oc3ccc(C#N)cc3)cc2)oc2cc(N(CCO)S(C)(=O)=O)c(OC)cc12 [Compound I-48] | 1070 |
| CNC(=O)c1c(-c2ccc(Nc3ccc(F)cn3)cc2)oc2cc(N(CCO)S(C)(=O)=O)c(OC)cc12 [Compound I-124] | 195 |
| CNC(=O)c1c(-c2ccc(Oc3ccc(F)cc3)cc2)oc2cc(N(CC3(C)COC3)S(C)(=O)=O)c(C3CC3)cc12 [Compound I-87] | 134 |
| CNC(=O)c1c(-c2ccc(Oc3cccc(Cl)c3)cc2)oc2cc(N(CCO)S(C)(=O)=O)c(OC(C)C)cc12 [Compound I-46] | 51 |

| SMILES | IC50 [nM] |
| --- | --- |
| CNC(=O)c1c(-c2ccc(Oc3ccccc3)cc2)oc2cc(-c3ccc[nH]3)c(C3CC3)cc12 [Compound I-89, 5-Cyclopropyl-2-(4-phenoxy-phenyl)-6-(1H-pyrrol-2-yl)-benzofuran-3-carboxylic acid methylamide] | 722 |
| CNC(=O)c1c(-c2ccc(Nc3ccc(F)cc3)cc2)oc2cc(N(CCO)S(C)(=O)=O)c(OC(C)C)cc12 [Compound I-31] | 92 |
| CNC(=O)c1c(-c2ccc(Oc3ccc(F)cc3)cc2)oc2cc(N(CCCSC)S(C)(=O)=O)c(C3CC3)cc12 [Compound I-113] | 18 |
| CNC(=O)c1c(-c2ccc(Nc3ccc(Cl)cc3)cc2)oc2cc(N(CCO)S(C)(=O)=O)c(OC)cc12 [Compound I-3] | 214 |
| CNC(=O)c1c(-c2ccc(Oc3ccc(F)cc3F)cc2)oc2cc(N(CCO)S(C)(=O)=O)c(OC(C)C)cc12 [Compound I-39] | 195 |
| CNC(=O)c1c(-c2ccc(Oc3ccccc3)cc2)oc2cc(-c3c(C)n[nH]c3C)c(C3CC3)cc12 [Compound I-101] | 318 |
| CNC(=O)c1c(-c2ccc(Oc3ccc(F)c(F)c3)cc2)oc2cc(N(CCO)S(C)(=O)=O)c(OC)cc12 [Compound I-45] | 48 |
| CNC(=O)c1c(-c2ccc(Oc3ccc(F)cc3)cc2)oc2cc(N(CCN)S(C)(=O)=O)c(OC)cc12 [Compound I-53] | 250 |
| CNC(=O)c1c(-c2ccc(Oc3ccccc3Cl)cc2)oc2cc(N(CCO)S(C)(=O)=O)c(OC(C)C)cc12 [Compound I-49] | 143 |
| CNC(=O)c1c(-c2ccc(Oc3ccc(F)cc3)cc2)oc2cc(N(C3CCC(N)CC3)S(C)(=O)=O)c(C3CC3)cc12 (centres unmarked) [Compound I-98, 6-[(4-Amino-cyclohexyl)-methanesulfonyl-amino]-5-cyclopropyl-2-[4-(4-fluoro-phenoxy)-phenyl]-benzofuran-3-carboxylic acid methylamide] | 44 |
| CNC(=O)c1c(-c2ccc(Oc3ccc(F)cc3)cc2)oc2cc(N(C)S(C)(=O)=O)c(Cl)cc12 [Compound I-66] | 29 |
| CCc1cc2c(C(=O)NC)c(-c3ccc(Oc4ccc(F)cc4)cc3)oc2cc1N(C)S(C)(=O)=O [Compound I-52] | 128 |
| CCN(c1cc2oc(-c3ccc(Nc4ccc(F)cc4)cc3)c(C(=O)NC)c2cc1OC)S(C)(=O)=O [Compound I-17] | 81 |
| CNC(=O)c1c(-c2ccc(Oc3ccccc3)cc2)oc2cc(N(CCO)S(C)(=O)=O)c(OC)cc12 [Compound I-4, 6-[(2-Hydroxy-ethyl)-methanesulfonyl-amino]-5-methoxy-2-(4-phenoxy-phenyl)-benzofuran-3-carboxylic acid methylamide] | 62 |
| CNC(=O)c1c(-c2ccc(Oc3ccc(F)cc3)cc2)oc2cc(N([C@H]3CC[C@H](O)CC3)S(C)(=O)=O)c(C3CC3)cc12 [Compound I-100] | 25 |
| CNC(=O)c1c(-c2ccc(Oc3ccc(F)cc3)cc2)oc2cc(N(CCCS(C)(=O)=O)S(C)(=O)=O)c(C3CC3)cc12 [Compound I-114] | 21 |
| CNC(=O)c1c(-c2ccc(Oc3ccc(F)cc3)cc2)oc2cc(N(C)S(C)(=O)=O)c(OC)cc12 [Compound I-35] | 51 |
| CNC(=O)c1c(-c2ccc(Oc3ccccc3Cl)cc2)oc2cc(N(CCO)S(C)(=O)=O)c(OC)cc12 [Compound I-44] | 82 |

Test system: not given
Experiment: not given
Conditions: not given

| SMILES | melting point [°C] |
| --- | --- |
| CNC(=O)c1c(-c2ccc(Oc3ccccc3)cc2)oc2cc(N3CCNS3(=O)=O)c(C3CC3)cc12 [Compound I-102, 5-Cyclopropyl-6-(1,1-dioxo-1λ^6-[1,2,5]thiadiazolidin-2-yl)-2-(4-phenoxy-phenyl)-benzofuran-3-carboxylic acid methylamide] | 183.4 to 184.5 |
| CNC(=O)c1c(-c2ccc(Oc3ccccc3)cc2)oc2cc(N3CCCS3(=O)=O)c(C3CC3)cc12 [Compound I-82, 5-Cyclopropyl-6-(1,1-dioxo-1λ^6-isothiazolidin-2-yl)-2-(4-phenoxy-phenyl)-benzofuran-3-carboxylic acid methylamide] | 174 to 176 |
| CNC(=O)c1c(-c2ccc(Oc3ccc(F)cc3)cc2)oc2cc(N(CCO)S(C)(=O)=O)ccc12 [Compound I-64, 2-[4-(4-Fluoro-phenoxy)-phenyl]-6-[(2-hydroxy-ethyl)-methanesulfonyl-amino]-benzofuran-3-carboxylic acid methylamide] | 214.6 to 215.7 |
| CNC(=O)c1c(-c2ccc(Oc3ccc(F)cc3)cc2)oc2cc(N(CC(N)CO)S(C)(=O)=O)c(C3CC3)cc12.Cl (centres unmarked) [Compound I-107] | 178 to 180 |
| CNC(=O)c1c(-c2ccc(Oc3ccc(F)cc3)cc2)oc2cc(N(CCS(C)(=O)=O)S(C)(=O)=O)c(C3CC3)cc12 [Compound I-83, 5-cyclopropyl-2-[4-(4-fluoro-phenoxy)-phenyl]-6-[methanesulfonyl-(2-methanesulfonyl-ethyl)-amino]-benzofuran-3-carboxylic acid methylamide] | 158 to 160 |
